Where a SMILES comes first, the peptide text is derived from it.
Assays:
[1] = tested on: osteochondral defect in goat stifle joint; conditions: in vivo
Protocol: In this study, the use of two different concentrations (See Table 1) of AC-100 in conjunction with a collagen sponge and a control with just the collagen sponge was implanted to evaluate the efficacy of AC-100 in repair of bone and cartilage (osteochondral) defects. The implants were intended to serve as an osteochondral allograft for cellular and matrix ingrowth. Efficacy to repair cartilage was assessed using gross and histological examination of the repair tissue. The primary objective was to determine whether AC-100 modifies and/or improves the healing of the osteochondral defect as compared to the study control group and the natural progression of historical controls using this model. This report describes the in vivo, gross and histological findings at the 12 and 24 weeks time points.
A single full-thickness chondral defects were created in the right hind leg stifle joint. The lesion site was located in the anterior medial femoral condyle. The basic surgical procedure was identical for all subjects. All surgeries were performed under strict asepsis. […]
Postoperative checks were made for any animal displaying signs of postoperative discomfort. […] All treatments were recorded in the appropriate study documentation. […]
Animals were humanely sacrificed at Day 84 (12 weeks) or Day 168 (24 weeks) postoperatively. Bodyweights were recorded immediately prior to sacrifice. […]

[2] = tested on: human mesenchymal stem cells (hMSC); experiment: proliferation assay with human mesenchymal stem cells, tritiated thymidine incorporation; format: cell-based; conditions: as compared to the vehicle
Protocol: The peptide of SEQ ID NO:34 was tested for its proliferation activity on human mesenchymal stem cells as compared to CMP-2 and IGF-1.
The same protocol and positive controls were used in this experiment.
SEQ ID NO:34 was selected for this experiment since the amino acid sequence of this peptide was derived from the corresponding region in rat and mouse MEPE where AC-100 was derived from human MEPE. Furthermore, as compared to all other known mammalian corresponding regions to AC-100, it is the least homologous to AC-100 (the human sequence).

[3] = tested on: 8 mm diameter defect in the rat parietal bones; experiment: rat calvaria defect model, bone bridging; format: in vivo; conditions: collagen sponge in defect, daily s.c. injections for 6 days, 28 days post-surgery, histology qualitative score; vs saline and AC-100
Protocol: AC-101, 102, and 103 were tested for their defect bridging activities as compared to AC-100.
As a next step, necessity of RGD integrin-binding motif (SEQ ID NO:42) and SGDG glycosaminoglycan attachment motif (SEQ ID NO:43) to the bone formation activities was examined by testing the selected peptides synthesized in EXAMPLE 1 in a rat calvaria defect model. In this model an 8 mm diameter defect is created in the rat parietal bones and a collagen sponge cut to size is inserted into the defect. The test article is soaked into the sponge. Sub-cutaneous injections are administered daily for 6 days post-surgery. After 28 days post-surgery the rats are euthanized and the calvariae collected. The degree of bone bridging was determined by histology analysis using a qualitative scoring system. The tested peptides were SEQ ID NO: 22, 23, and 24, which were also encoded as AC-101, AC-102, and AC-103, respectively.
AC-100 that includes both the RGD integrin-binding motif and the SGDG glycosaminoglycan attachment motif was used as a positive control at the optimal dose.

Compound	proliferation activities of the hMSC by tritiated-thymidine incorporation [2]	degree of bone bridging [3]	further results
CC[C@H](C)[C@H](NC(=O)[C@H](CC(=O)O)NC(=O)[C@H](CC(N)=O)NC(=O)[C@H](CC(=O)O)NC(=O)CNC(=O)[C@H](CCCNC(=N)N)NC(=O)[C@H](CCC(=O)O)NC(=O)[C@H](CCC(N)=O)NC(=O)[C@H](CC(C)C)NC(=O)[C@H](CC(=O)O)NC(=O)[C@@H](N)[C@@H](C)O)C(=O)N[C@@H](CO)C(=O)N1CCC[C@H]1C(=O)N[C@@H](Cc1ccccc1)C(=O)N[C@@H](CO)C(=O)NCC(=O)N[C@@H](CC(=O)O)C(=O)NCC(=O)N[C@@H](CCC(N)=O)C(=O)N1CCC[C@H]1C(=O)N[C@@H](Cc1ccccc1)C(=O)N[C@@H](CCCCN)C(=O)N[C@@H](CC(=O)O)C(N)=O [AC-100] (H-TDLQERGDNDISPFSGDGQPFKD-NH2)	–	–	adverse events [1]: No adverse events were identified; inflammatory response in sections [1]: no evidence of an inflammatory response
IGF-1: Insulin-like Growth Factor-1, positive control in hMSC proliferation assay	Significant proliferation activities	–	–
PDLLVRGDNDVPPFSGDGQHFMH [SEQ ID NO:34]	Significant proliferation activities	–	–
TDLQEDGRNDISPFGDGSQPFKD [AC-103]	–	improved versus saline treatment alone and was comparable to the activity of AC-100	–
TDLQEDGRNDISPFSGDGQPFKD [AC-101]	–	improved versus saline treatment alone and was comparable to the activity of AC-100	–
TDLQERGDNDISPFGDGSQPFKD [AC-102]	–	improved versus saline treatment alone and was comparable to the activity of AC-100	–
